Calls of active or inactive are those of the source. The rule behind the calls is not given here.
What was measured:
A549 = experiment: Cytotoxicity against human A549 cells after 48 hrs by WST8 assay; assay type: functional, cell-based; details: A549, 48 h
Bos taurus [1] = organism: Bos taurus; experiment: Alkylating activity at CCTCTAA sequence of calf thymus DNA assessed as enrichment ratio by measuring ratio of sample to input control after 1 hr by MERMADE method; assay type: functional
Bos taurus [2] = organism: Bos taurus; experiment: Alkylating activity at CACTAGA sequence of calf thymus DNA assessed as enrichment ratio by measuring ratio of sample to input control after 1 hr by MERMADE method; assay type: functional
Bos taurus [3] = organism: Bos taurus; experiment: Alkylating activity at AGTGGTA sequence of calf thymus DNA assessed as enrichment ratio by measuring ratio of sample to input control after 1 hr by MERMADE method; assay type: functional
Bos taurus [4] = organism: Bos taurus; experiment: Alkylating activity at ATCTCTA sequence of calf thymus DNA assessed as enrichment ratio by measuring ratio of sample to input control after 1 hr by MERMADE method; assay type: functional
Bos taurus [5] = organism: Bos taurus; experiment: Alkylating activity at CTCTAGA sequence of calf thymus DNA assessed as enrichment ratio by measuring ratio of sample to input control after 1 hr by MERMADE method; assay type: functional
Bos taurus [6] = organism: Bos taurus; experiment: Alkylating activity at ACCTCAA sequence of calf thymus DNA assessed as enrichment ratio by measuring ratio of sample to input control after 1 hr by MERMADE method; assay type: functional
Bos taurus [7] = organism: Bos taurus; experiment: Alkylating activity at calf thymus DNA containing adenine at seventh position of motif by MR method; assay type: functional
Bos taurus [8] = organism: Bos taurus; experiment: Alkylating activity at TCACTAA sequence of calf thymus DNA assessed as enrichment ratio by measuring ratio of sample to input control after 1 hr by MERMADE method; assay type: functional
Bos taurus [9] = organism: Bos taurus; experiment: Alkylating activity at ACTAGTG sequence of calf thymus DNA assessed as enrichment ratio by measuring ratio of sample to input control after 1 hr by MERMADE method; assay type: functional
Bos taurus [10] = organism: Bos taurus; experiment: Alkylating activity at CCACTAG sequence of calf thymus DNA assessed as enrichment ratio by measuring ratio of sample to input control after 1 hr by MERMADE method; assay type: functional
Bos taurus [11] = organism: Bos taurus; experiment: Alkylating activity at ACCTCTA sequence of calf thymus DNA assessed as enrichment ratio by measuring ratio of sample to input control after 1 hr by MERMADE method; assay type: functional
Bos taurus [12] = organism: Bos taurus; experiment: Alkylating activity at CCACTAA sequence of calf thymus DNA assessed as enrichment ratio by measuring ratio of sample to input control after 1 hr by MERMADE method; assay type: functional
Bos taurus [13] = organism: Bos taurus; experiment: Alkylating activity at TAGTGAA sequence of calf thymus DNA assessed as enrichment ratio by measuring ratio of sample to input control after 1 hr by MERMADE method; assay type: functional
Bos taurus [14] = organism: Bos taurus; experiment: Alkylating activity at ACCACTA sequence of calf thymus DNA assessed as enrichment ratio by measuring ratio of sample to input control after 1 hr by MERMADE method; assay type: functional
Bos taurus [15] = organism: Bos taurus; experiment: Alkylating activity at CCTCTAG sequence of calf thymus DNA assessed as enrichment ratio by measuring ratio of sample to input control after 1 hr by MERMADE method; assay type: functional
Bos taurus [16] = organism: Bos taurus; experiment: Alkylating activity at CTAGTGA sequence of calf thymus DNA assessed as enrichment ratio by measuring ratio of sample to input control after 1 hr by MERMADE method; assay type: functional
Bos taurus [17] = organism: Bos taurus; experiment: Alkylating activity at CCTCAAG sequence of calf thymus DNA assessed as enrichment ratio by measuring ratio of sample to input control after 1 hr by MERMADE method; assay type: functional
Bos taurus [18] = organism: Bos taurus; experiment: Alkylating activity at TACACTA sequence of calf thymus DNA assessed as enrichment ratio by measuring ratio of sample to input control after 1 hr by MERMADE method; assay type: functional
Bos taurus [19] = organism: Bos taurus; experiment: Alkylating activity at CCTCTAC sequence of calf thymus DNA assessed as enrichment ratio by measuring ratio of sample to input control after 1 hr by MERMADE method; assay type: functional
Bos taurus [20] = organism: Bos taurus; experiment: Alkylating activity at ACCATTA sequence of calf thymus DNA assessed as enrichment ratio by measuring ratio of sample to input control after 1 hr by MERMADE method; assay type: functional
Bos taurus [21] = organism: Bos taurus; experiment: Alkylating activity at ATCACTA sequence of calf thymus DNA assessed as enrichment ratio by measuring ratio of sample to input control after 1 hr by MERMADE method; assay type: functional
Bos taurus [22] = organism: Bos taurus; experiment: Alkylating activity at GGTGAGA sequence of calf thymus DNA assessed as enrichment ratio by measuring ratio of sample to input control after 1 hr by MERMADE method; assay type: functional
Bos taurus [23] = organism: Bos taurus; experiment: Alkylating activity at ATACCTC sequence of calf thymus DNA assessed as enrichment ratio by measuring ratio of sample to input control after 1 hr by MERMADE method; assay type: functional
Bos taurus [24] = organism: Bos taurus; experiment: Alkylating activity at ACCTCAG sequence of calf thymus DNA assessed as enrichment ratio by measuring ratio of sample to input control after 1 hr by MERMADE method; assay type: functional
Bos taurus [25] = organism: Bos taurus; experiment: Alkylating activity at CCTCACC sequence of calf thymus DNA assessed as enrichment ratio by measuring ratio of sample to input control after 1 hr by MERMADE method; assay type: functional
Bos taurus [26] = organism: Bos taurus; experiment: Alkylating activity at CACCTCA sequence of calf thymus DNA assessed as enrichment ratio by measuring ratio of sample to input control after 1 hr by MERMADE method; assay type: functional
Bos taurus [27] = organism: Bos taurus; experiment: Alkylating activity at ACCTCAC sequence of calf thymus DNA assessed as enrichment ratio by measuring ratio of sample to input control after 1 hr by MERMADE method; assay type: functional
Bos taurus [28] = organism: Bos taurus; experiment: Alkylating activity at ACTCCTC sequence of calf thymus DNA assessed as enrichment ratio by measuring ratio of sample to input control after 1 hr by MERMADE method; assay type: functional
Bos taurus [29] = organism: Bos taurus; experiment: Alkylating activity at CTCCACC sequence of calf thymus DNA assessed as enrichment ratio by measuring ratio of sample to input control after 1 hr by MERMADE method; assay type: functional
Bos taurus [30] = organism: Bos taurus; experiment: Alkylating activity at CGACCTC sequence of calf thymus DNA assessed as enrichment ratio by measuring ratio of sample to input control after 1 hr by MERMADE method; assay type: functional
Bos taurus [31] = organism: Bos taurus; experiment: Alkylating activity at CTACCTC sequence of calf thymus DNA assessed as enrichment ratio by measuring ratio of sample to input control after 1 hr by MERMADE method; assay type: functional
Bos taurus [32] = organism: Bos taurus; experiment: Alkylating activity at CCACCTC sequence of calf thymus DNA assessed as enrichment ratio by measuring ratio of sample to input control after 1 hr by MERMADE method; assay type: functional
Bos taurus [33] = organism: Bos taurus; experiment: Alkylating activity at CCACTCC sequence of calf thymus DNA assessed as enrichment ratio by measuring ratio of sample to input control after 1 hr by MERMADE method; assay type: functional
Bos taurus [34] = organism: Bos taurus; experiment: Alkylating activity at GAGGTGA sequence of calf thymus DNA assessed as enrichment ratio by measuring ratio of sample to input control after 1 hr by MERMADE method; assay type: functional
Bos taurus [35] = organism: Bos taurus; experiment: Alkylating activity at GTGAGGA sequence of calf thymus DNA assessed as enrichment ratio by measuring ratio of sample to input control after 1 hr by MERMADE method; assay type: functional
Bos taurus [36] = organism: Bos taurus; experiment: Alkylating activity at ACCTCAT sequence of calf thymus DNA assessed as enrichment ratio by measuring ratio of sample to input control after 1 hr by MERMADE method; assay type: functional
Bos taurus [37] = organism: Bos taurus; experiment: Alkylating activity at GAGGTTA sequence of calf thymus DNA assessed as enrichment ratio by measuring ratio of sample to input control after 1 hr by MERMADE method; assay type: functional
Bos taurus [38] = organism: Bos taurus; experiment: Alkylating activity at AGGTGAG sequence of calf thymus DNA assessed as enrichment ratio by measuring ratio of sample to input control after 1 hr by MERMADE method; assay type: functional
Bos taurus [39] = organism: Bos taurus; experiment: Alkylating activity at TACCTCA sequence of calf thymus DNA assessed as enrichment ratio by measuring ratio of sample to input control after 1 hr by MERMADE method; assay type: functional

Structure (SMILES): CC(=O)Nc1cn(C)c(C(=O)Nc2cn(C)c(C(=O)Nc3cn(C)c(C(=O)Nc4cn(C)c(C(=O)NCC[C@@H](NC(=O)OC(C)(C)C)C(=O)Nc5ccc(C(=O)Nc6cn(C)cc6C(=O)Nc6ccc7[nH]c(C(=O)N8CC(CCl)c9c8cc(O)c8ccccc98)cc7c6)n5C)n4)n3)n2)n1 (stereo partly drawn)
- IC50 (A549): 120 nM

Structure (SMILES): CC(=O)Nc1cn(C)c(C(=O)Nc2cn(C)c(C(=O)Nc3cn(C)c(C(=O)Nc4cn(C)c(C(=O)NCC[C@@H](NC(=O)CCOCCOCCOCCOCCOCCOCCOCCOCCOCCOCCOCCOCCNC(=O)CCCC[C@@H]5SC[C@@H]6NC(=O)N[C@@H]65)C(=O)Nc5ccc(C(=O)Nc6cn(C)cc6C(=O)Nc6cn(C)cc6C(=O)Nc6ccc7[nH]c(C(=O)N8CC(CCl)c9c8cc(O)c8ccccc98)cc7c6)n5C)n4)n3)n2)n1 (stereo partly drawn)
- Ratio (Bos taurus [1]): 3.79
- Ratio (Bos taurus [2]): 3.64
- Ratio (Bos taurus [3]): 3.37
- Ratio (Bos taurus [4]): 3.46
- Ratio (Bos taurus [5]): 3.68
- Ratio (Bos taurus [6]): 4.19
- Activity (Bos taurus [7]): Active
- Ratio (Bos taurus [8]): 3.61
- Ratio (Bos taurus [9]): 3.82
- Ratio (Bos taurus [10]): 4.13
- Ratio (Bos taurus [11]): 6.96
- Ratio (Bos taurus [12]): 3.16
- Ratio (Bos taurus [13]): 4.34
- Ratio (Bos taurus [14]): 5.11
- Ratio (Bos taurus [15]): 4.45
- Ratio (Bos taurus [16]): 3.82
- Ratio (Bos taurus [17]): 3.19
- Ratio (Bos taurus [18]): 3.63
- Ratio (Bos taurus [19]): 3.33
- Ratio (Bos taurus [20]): 3.28
- Ratio (Bos taurus [21]): 4.94

Structure (SMILES): CC(=O)Nc1cn(C)c(C(=O)Nc2cn(C)c(C(=O)Nc3cn(C)c(C(=O)Nc4cn(C)c(C(=O)NCC[C@@H](NC(=O)CCOCCOCCOCCOCCOCCOCCOCCOCCOCCOCCOCCOCCNC(=O)CCCC[C@@H]5SC[C@@H]6NC(=O)N[C@@H]65)C(=O)Nc5ccc(C(=O)Nc6cn(C)cc6C(=O)Nc6ccc7[nH]c(C(=O)N8CC(CCl)c9c8cc(O)c8ccccc98)cc7c6)n5C)n4)n3)n2)n1 (stereo partly drawn)
- Ratio (Bos taurus [22]): 2.06
- Ratio (Bos taurus [23]): 2.02
- Ratio (Bos taurus [24]): 2.05
- Ratio (Bos taurus [25]): 2.65
- Ratio (Bos taurus [26]): 2.44
- Ratio (Bos taurus [27]): 2.69
- Ratio (Bos taurus [28]): 2
- Ratio (Bos taurus [29]): 2.06
- Ratio (Bos taurus [30]): 2
- Ratio (Bos taurus [31]): 2.12
- Ratio (Bos taurus [6]): 2.07
- Ratio (Bos taurus [32]): 2.4
- Ratio (Bos taurus [11]): 2.01
- Ratio (Bos taurus [33]): 2.04
- Ratio (Bos taurus [34]): 2.06
- Ratio (Bos taurus [35]): 2.02
- Ratio (Bos taurus [36]): 2.17
- Ratio (Bos taurus [37]): 2.21
- Ratio (Bos taurus [38]): 2.24
- Ratio (Bos taurus [39]): 2.48

Structure (SMILES): CC(=O)Nc1cn(C)c(C(=O)Nc2cn(C)c(C(=O)Nc3cn(C)c(C(=O)Nc4cn(C)c(C(=O)NCC[C@@H](NC(=O)OC(C)(C)C)C(=O)Nc5ccc(C(=O)Nc6cn(C)cc6C(=O)Nc6cn(C)cc6C(=O)Nc6ccc7[nH]c(C(=O)N8CC(CCl)c9c8cc(O)c8ccccc98)cc7c6)n5C)n4)n3)n2)n1 (stereo partly drawn)
- IC50 (A549): 63 nM
